Measured values: patent US6617491B2, “Use of drosophila melanogaster as a model for screening psychostimulant plant materials” (Council of Scientific & Industrial Research, priority 2001, dated 2003)

Experiments:
Sh^5eag^1 mutant flies [1] = assay: Spontaneous locomotor activity in flies, pair-wise visual comparison of vials on a scale of '0', '+' or '−'; assay type: in vivo, Drosophila melanogaster; settings: baseline NF flies; 73 comparisons; 5th day; 20 flies per vial
Method: To further understand the activity profile of the plant material, flies were treated with either NF or NF containing either ethanol alone (NF+ET) or ethanol and extract both (NF+ET+EX). The ethanol concentration used was 20% (v/v). Other details were as described earlier. On 5th day, spontaneous locomotor activity in flies was pair-wise compared either between NF and NF+ET or between NF+ET and NF+ET+EX. Two vials representing the two treatments were kept side by side in an inverted position. There were 20 flies in each vial. The flies' activity in a group was visually estimated on a scale of ‘0’, ‘+’ or ‘−’, as described below. To compare between NF and NF+ET, the sum total of activity seen in the vial containing NF flies was considered ‘0’. The activity in the NF+ET vial was then given a ‘0’, ‘+’ or ‘−’, depending on whether it is equal, more or less than the activity observed in NF vial respectively. The process was repeated 73 times spanning an entire day. In this test, ethanol treated flies received 23 ‘0’s, no ‘+’ and 50 ‘−’s. […] NF+
ET and NF+ET+EX flies were similarly compared, with the activity in the former serving as baseline, i.e., ‘0’. In this test, NF+ET+EX received no ‘0’, 73 ‘+’5 and no ‘−’. […] First, ethanol decreases spontaneous locomotor activity in flies. Second, Acorus extract increases spontaneous locomotor activity in flies treated with ethanol, a CNS depressant drug.
Having observed a stimulant activity of Acorus extract in flies under the influence of alcohol, the question whether the extract also stimulates normal flies, i.e., individuals not under the drug's influence, was asked. To answer this, spontaneous locomotor activity in NF and NF+EX flies were compared, as described above. NF flies' activity served as the baseline. In the test conducted the extract treated flies received 18 ‘0’5 […] and 2 ‘−’s.

Sh^5eag^1 mutant flies [2] = assay: Time of recovery from diethyl ether anesthesia in individual fly pairs; assay type: in vivo, Drosophila melanogaster; settings: NF+PS; PS 1 mg/ml in fly food; 10 fly pairs
Method: Standard Drosophila manipulation methods were followed. Cultures were grown on a medium containing maize powder, sugar, yeast and Nipagin. Flies were maintained and further manipulated at room temperature. Experimental conditions were kept identical throughout. The double mutant Sh^5eag^1 was generated using standard methods of Drosophila genetics. Male flies of similar age were used in the experiment. In routine screening, flies were anesthetized in various groups and then allowed to recover in an identical manner. For further testing, individual fly pairs were used as described below. Following different treatments, flies were first anesthetized with diethyl ether and healthy looking individuals shifted to a number of empty vials in such a way that each vial received two flies, one from each treatment. Before shifting, flies from one of the two treatments were marked on their wings for the purpose of identification. Flies were allowed to recover fully. After an hour, each fly pair was subjected to the following test. […]
To understand the above activity, and others, if any, of the Acorus extracts in Drosophila in a quantitative manner, following experiments were carried out using acetone extract as the representative substance. […] First, time of recovery from ether anesthesia was measured in individual flies. […] Following this, recovery time was determined as described earlier. […]

Sh^5eag^1 mutant flies [3] = settings: from Sharma and Kumar, Ser. No. 09/789,525; cited from earlier work

| Compound | spontaneous locomotor activity: number of '0's (times equally active) (Sh^5eag^1 mutant flies [1]) | spontaneous locomotor activity: number of '+'s (times more active) (Sh^5eag^1 mutant flies [1]) | spontaneous locomotor activity: number of '−'s (times less active) (Sh^5eag^1 mutant flies [1]) | recovery time from ether anesthesia (Sh^5eag^1 mutant flies [2]) | effect on recovery from ether anesthesia in flies (Sh^5eag^1 mutant flies [3]) |
| --- | --- | --- | --- | --- | --- |
| CCO [ethanol] | 23 | no | 50 | – | – |
| CCC1(c2ccccc2)C(=O)NC(=O)NC1=O [phenobarbital sodium] | – | – | – | 11.3 ± 2.38 min | causes a delay in recovery |
